From patent publication US11180504B2 (ORCHID PHARMA LTD., priority 2016, dated 2021)
Values after ≈ are worked out from the molar mass of the structure shown.

How the values were obtained:
[1] = system: methicillin-sensitive Staphylococcus aureus; assay: MIC by broth micro-dilution (CLSI), methicillin-sensitive S. aureus; type: cell-based; settings: Staphylococcus aureus, ATCC 29213 / MSSA, MSSA S. aureus ATCC29213; read-out: MIC
[2] = system: carbapenemase producing K. pneumoniae; assay: MIC by broth micro-dilution (CLSI), carbapenemase producing K. pneumoniae; type: cell-based, Klebsiella pneumoniae; settings: Klebsiella pneumoniae, ATCCBAA1705, KPC-2 K. pneumoniae ATCC BAA-1705; read-out: MIC
[3] = system: carbapenem sensitive Pseudomonas aeruginosa; assay: MIC by broth micro-dilution (CLSI), carbapenem sensitive P. aeruginosa; type: cell-based; settings: Pseudomonas aeruginosa, ATCC27853, Meropenem susceptible P. aeruginosa ATCC27853; read-out: MIC
[4] = system: carbapenem sensitive Escherichia coli; assay: MIC by broth micro-dilution (CLSI), carbapenem sensitive E. coli; type: cell-based; settings: Escherichia coli, ATCC25922, ESBL −ve E. coli ATCC25922; read-out: MIC
[5] = system: extended spectrum β lactamase (ESBL) SHV18 producing Klebsiella pneumoniae; assay: MIC by broth micro-dilution (CLSI), ESBL SHV18 producing K. pneumoniae; type: cell-based; settings: Klebsiella pneumoniae, ATCC700603, 22 h, ESBL +ve (SHV-18) K. pneumoniae ATCC700603; read-out: MIC

SMILES	MIC [1] [µg/mL]	MIC [2] [µg/mL]	MIC [3] [µg/mL]	MIC [4] [µg/mL]	MIC [5] [µg/mL]
CNCC(=O)N[C@H](C)[C@H]1C(=O)N2C(C(=O)O)=C(S[C@@H]3CN[C@H](C(=O)N4CCC(N)CC4)C3)[C@H](C)[C@H]12 [Example 190]	64 (≈ 126 µM)	4 (≈ 7.86 µM)	4 (≈ 7.86 µM)	2 (≈ 3.93 µM)	16 (≈ 31.5 µM)
C[C@@H](NC(=O)C(F)F)[C@H]1C(=O)N2C(C(=O)O)=C(S[C@@H]3CN[C@H](C(=O)NCCC(=O)NOCc4ccccc4)C3)[C@H](C)[C@H]12 [Example 111]	4 (≈ 6.56 µM)	16 (≈ 26.2 µM)	> 128	1 (≈ 1.64 µM)	16 (≈ 26.2 µM)
C[C@@H](NS(C)(=O)=O)[C@H]1C(=O)N2C(C(=O)O)=C(S[C@@H]3CN[C@H](CNS(N)(=O)=O)C3)[C@H](C)[C@H]12 [Example 7]	2 to 8 (≈ 4.02 to 16.1 µM)	2 to 4 (≈ 4.02 to 8.04 µM)	32 to 64 (≈ 64.3 to 129 µM)	0.5 (≈ 1 µM)	2 to 4 (≈ 4.02 to 8.04 µM)
C[C@@H](NC(=O)C(F)F)[C@H]1C(=O)N2C(C(=O)O)=C(S[C@@H]3CN[C@H](C(=O)N4C[C@@H](O)[C@@H](N)C4)C3)[C@H](C)[C@H]12 [Example 213]	1 (≈ 1.93 µM)	4 (≈ 7.73 µM)	8 (≈ 15.5 µM)	0.5 (≈ 0.966 µM)	2 (≈ 3.86 µM)
C[C@@H](NC(=O)CNC1CC1)[C@H]1C(=O)N2C(C(=O)O)=C(S[C@@H]3CN[C@H](C(=O)N4CC[C@@H](N)C4)C3)[C@H](C)[C@H]12 [Example 197]	16 (≈ 30.7 µM)	16 (≈ 30.7 µM)	32 (≈ 61.5 µM)	4 (≈ 7.68 µM)	16 (≈ 30.7 µM)
C[C@@H](NC(=O)C(F)(F)F)[C@H]1C(=O)N2C(C(=O)O)=C(S[C@@H]3CN[C@H](C(=O)N(C)C)C3)[C@H](C)[C@H]12 [Example 64]	2 (≈ 4.18 µM)	8 (≈ 16.7 µM)	64 (≈ 134 µM)	1 to 2 (≈ 2.09 to 4.18 µM)	8 (≈ 16.7 µM)
C[C@@H](NC(=O)CN(C)C(=N)N)[C@H]1C(=O)N2C(C(=O)O)=C(S[C@@H]3CN[C@H](C(=O)N4CC[C@@H](N)C4)C3)[C@H](C)[C@H]12 [Example 230]	32 (≈ 59.6 µM)	4 (≈ 7.45 µM)	8 (≈ 14.9 µM)	1 (≈ 1.86 µM)	8 (≈ 14.9 µM)
C[C@@H](NC(=O)C(F)F)[C@H]1C(=O)N2C(C(=O)O)=C(S[C@@H]3CN[C@H](C(=O)N[C@@H]4CCNC4)C3)[C@H](C)[C@H]12 [Example 130]	2 (≈ 3.99 µM)	4 (≈ 7.98 µM)	32 (≈ 63.8 µM)	1 (≈ 1.99 µM)	8 (≈ 16 µM)
C[C@@H](NS(C)(=O)=O)[C@H]1C(=O)N2C(C(=O)O)=C(S[C@@H]3CN[C@H](C(=O)N4CC[C@@H](NS(N)(=O)=O)C4)C3)[C@H](C)[C@H]12 [Example 203]	16 (≈ 27.6 µM)	4 (≈ 6.89 µM)	128 (≈ 220 µM)	0.5 (≈ 0.861 µM)	1 (≈ 1.72 µM)
C[C@@H](NC(=O)C(F)F)[C@H]1C(=O)N2C(C(=O)O)=C(S[C@@H]3CN[C@H](C(=O)N4CC[C@H](N(C)C)C4)C3)[C@H](C)[C@H]12 [Example 107]	4 (≈ 7.55 µM)	4 (≈ 7.55 µM)	16 (≈ 30.2 µM)	1 (≈ 1.89 µM)	4 (≈ 7.55 µM)
CNCC(=O)N[C@H](C)[C@H]1C(=O)N2C(C(=O)O)=C(S[C@@H]3CN[C@H](C(=O)N4CC[C@@H](CN)C4)C3)[C@H](C)[C@H]12 [Example 220]	32 (≈ 62.9 µM)	2 (≈ 3.93 µM)	2 (≈ 3.93 µM)	1 (≈ 1.97 µM)	2 (≈ 3.93 µM)
C[C@@H](NC(=O)C(F)F)[C@H]1C(=O)N2C(C(=O)O)=C(S[C@@H]3CN[C@H](C(=O)N4CC[C@H](NC(=N)N)C4)C3)[C@H](C)[C@H]12 [Example 195]	2 (≈ 3.68 µM)	4 (≈ 7.36 µM)	8 (≈ 14.7 µM)	0.5 (≈ 0.92 µM)	1 (≈ 1.84 µM)
CCCCS(=O)(=O)N[C@H](C)[C@H]1C(=O)N2C(C(=O)O)=C(S[C@@H]3CN[C@H](C(=O)N(C)C)C3)[C@H](C)[C@H]12 [Example 18]	8 (≈ 15.9 µM)	8 (≈ 15.9 µM)	32 (≈ 63.7 µM)	4 (≈ 7.96 µM)	64 (≈ 127 µM)
COc1ccc(S(=O)(=O)N[C@H](C)[C@H]2C(=O)N3C(C(=O)O)=C(S[C@@H]4CN[C@H](C(=O)N(C)C)C4)[C@H](C)C23)cc1OC (some centres unmarked) [Example 9]	8 (≈ 13.7 µM)	> 128	> 128	128 (≈ 220 µM)	> 128
C[C@@H](NC(=O)C(F)F)[C@H]1C(=O)N2C(C(=O)O)=C(S[C@@H]3CN[C@H](C(=O)N4CC[C@@H](ON)C4)C3)[C@H](C)[C@H]12 [Example 164]	1 (≈ 1.93 µM)	4 (≈ 7.73 µM)	32 (≈ 61.8 µM)	0.25 (≈ 0.483 µM)	1 (≈ 1.93 µM)
CNCC(=O)N[C@H](C)[C@H]1C(=O)N2C(C(=O)O)=C(S[C@@H]3CN[C@H](C(=O)N(CCN)CCO)C3)[C@H](C)[C@H]12 [Example 202]	64 (≈ 125 µM)	16 (≈ 31.2 µM)	8 (≈ 15.6 µM)	4 (≈ 7.8 µM)	64 (≈ 125 µM)
CNCC(=O)N[C@H](C)[C@H]1C(=O)N2C(C(=O)O)=C(S[C@@H]3CN[C@H](C(=O)N4CC[C@@H](NC)C4)C3)[C@H](C)[C@H]12 [Example 179]	128 (≈ 252 µM)	8 (≈ 15.7 µM)	16 (≈ 31.5 µM)	2 (≈ 3.93 µM)	16 (≈ 31.5 µM)
CNCC(=O)N[C@H](C)[C@H]1C(=O)N2C(C(=O)O)=C(S[C@@H]3CN[C@H](C(=O)N4CC[C@H](N)C4)C3)[C@H](C)[C@H]12 [Example 129]	32 (≈ 64.7 µM)	8 (≈ 16.2 µM)	8 (≈ 16.2 µM)	4 (≈ 8.09 µM)	32 (≈ 64.7 µM)
C[C@@H](NC(=O)C(F)F)[C@H]1C(=O)N2C(C(=O)O)=C(S[C@@H]3CN[C@H](CN4CCOCC4)C3)[C@H](C)[C@H]12 [Example 90]	1 (≈ 2.05 µM)	4 (≈ 8.19 µM)	128 (≈ 262 µM)	1 (≈ 2.05 µM)	32 (≈ 65.5 µM)
C[C@@H](NC(=O)C(F)F)[C@H]1C(=O)N2C(C(=O)O)=C(Sc3nc(-c4ccncc4)cs3)[C@H](C)[C@H]12 [Example 88]	0.25 (≈ 0.52 µM)	> 128	> 128	128 (≈ 266 µM)	> 128
CCS(=O)(=O)CC(=O)N[C@H](C)[C@H]1C(=O)N2C(C(=O)O)=C(S[C@@H]3CN[C@H](C(=O)N(C)C)C3)[C@H](C)[C@H]12 [Example 63]	8 to 16 (≈ 15.5 to 31 µM)	8 to 16 (≈ 15.5 to 31 µM)	> 128	1 to 2 (≈ 1.94 to 3.87 µM)	16 to 32 (≈ 31 to 61.9 µM)
C[C@@H](NC(=O)CO)[C@H]1C(=O)N2C(C(=O)O)=C(S[C@@H]3CN[C@H](C(=O)N(C)C)C3)[C@H](C)[C@H]12 [Example 60]	32 (≈ 72.6 µM)	64 (≈ 145 µM)	> 128	16 (≈ 36.3 µM)	32 (≈ 72.6 µM)
C[C@@H](NC(=O)C(F)F)[C@H]1C(=O)N2C(C(=O)O)=C(S[C@@H]3CN[C@H](C(=O)N4CC[C@H](NS(C)(=O)=O)C4)C3)[C@H](C)[C@H]12 [Example 110]	4 (≈ 6.9 µM)	4 (≈ 6.9 µM)	32 (≈ 55.2 µM)	0.5 (≈ 0.863 µM)	2 (≈ 3.45 µM)
C[C@@H](NC(=O)C(C)(F)F)[C@H]1C(=O)N2C(C(=O)O)=C(S[C@@H]3CN[C@H](C(=O)N(C)C)C3)[C@H](C)[C@H]12 [Example 61]	1 (≈ 2.11 µM)	16 (≈ 33.7 µM)	> 128	1 (≈ 2.11 µM)	16 (≈ 33.7 µM)
C[C@@H](NCC(=O)O)[C@H]1C(=O)N2C(C(=O)O)=C(S[C@@H]3CN[C@H](C(=O)N(C)C)C3)[C@H](C)[C@H]12 [Example 99]	128 (≈ 291 µM)	64 (≈ 145 µM)	16 (≈ 36.3 µM)	64 (≈ 145 µM)	16 (≈ 36.3 µM)
